Source: ChEMBL document CHEMBL1151547, “Enantioselective reduction of ethyl 3-methyl-2-oxobutanoate by an enzymatic system from callus of catharanthus roseus” (1994)

Assays:
Catharanthus roseus [1] = assay: Substrate specificity for NADPH-dependent dehydrogenase of catharanthus roseus supernatant fraction; assay type: functional
Catharanthus roseus [2] = assay: Substrate specificity for NADPH-dependent dehydrogenase of catharanthus roseus membrane fraction; assay type: functional

| Compound | Activity (Catharanthus roseus [1]) | Activity (Catharanthus roseus [2]) |
| --- | --- | --- |
| CCCCCCCCC(=O)C(F)(F)F | 0 | 0 |
| CCOC(=O)CC(C)=O | 0 | 0 |
| CCOC(=O)C(=O)CC | 68 | 65 |
| CCC(=O)C(=O)O | 0 | 0 |
| CCCCCC(=O)C(=O)OCC | 50 | 50 |
| CCOC(=O)C(=O)C(C)C | 100 | 100 |
| COC(=O)CC(=O)CCl | 12 | 0 |
| O=CC(O)CO (stereo not drawn) | 0 | 0 |
| O=C(c1ccccc1)C(F)(F)F | 65 | 6 |
| CCOC(=O)C(C)C(C)=O (stereo not drawn) | 29 | 0 |
| CC(C)CC(=O)C(=O)O [2-Oxoisohexanoate] | 0 | 0 |
| CC(C)C(=O)C(=O)O [2-Oxoisovalerate] | 0 | 0 |
| CC=O [ACETALDEHYDE] | 0 | 0 |
| CCOC(=O)C(C)=O [ETHYL PYRUVATE] | 70 | 59 |
